For assay [1], the system named is Pfeiffer cell line (diffuse large B cell lymphoma). As to the kind of experiment: Pfeiffer Cell Proliferation Assay (Example B2). Format: cell-based, human. The procedure:
Pfeiffer cell line (diffuse large B cell lymphoma) are purchased from ATCC (Manassas, Va.) and maintained in the culture medium recommended (RPMI and 10% FBS). To measure the anti-proliferation activity of the compounds, the Pfeiffer cells are plated with the culture medium (2×10^3 cells well per […]) into 96-well ultra-low binding plates (Corning, Corning, N.Y.), in the presence or absence of a concentration range of test compounds. After 3-4 days, [^3H]-thymidine (1 μCi/well) (PerkinElmer, Boston, Mass.) in PBS is then added to the cell culture for an additional 12 hours before the incorporated radioactivity is separated by filtration with water through GF/B filters (Packard Bioscience, Meriden, Conn.) and measured by liquid scintillation counting with a TopCount (Packard Bioscience).

Assay [2] deals with Pfeiffer human tumor xenograft model of diffuse large B-cell lymphoma. As to the kind of experiment: Pfeiffer Model of Lymphoma (Example D). Format: in vivo. The settings on record: SCID mice. The procedure: Female SCID mice, (5 to 8 weeks of age, Charles River Laboratories, Wilmington, Mass.) were inoculated with 1×10^7 tumor cells (Pfeiffer, ATCC #CRL-2632, Manassas, Va.) and matrigel (BD Biosciences #354234) in 0.2 mL sterile saline. The inoculation was performed subcutaneously on the flank. Tumor tissue fragments (approximately 3 mm×3 mm) were collected 3 to 6 weeks after the inoculation of cultured cells and implanted subcutaneously in lieu of cellular inoculation. Tissue fragments were implanted as solid pieces using blunt-tip forceps. The treatment of tumor bearing mice was started 15 to 25 days after tumor inoculation, depending upon the tumor size. Animals were sorted to obtain roughly equivalent mean tumor volumes in each group. Minimum mean tumor volume in all groups was 150 mm3 on the first day of treatment and groups consisted of 7 animals. Experimental therapeutic agent, Example 347, was administered to mice orally (PO). Treatment frequency was 2 times daily for a minimum of 14 days for efficacy. The size of subcutaneous tumors was measured 2 to 3 times weekly using a digital caliper. The tumor volume was calculated by measuring the tumor in 2 dimensions and utilizing the equation: Volume=[Length×(Width2)]/2; where the larger number was length, and the smaller number width. If multiple tumors were formed, the final volume was the sum of the individual tumors subject to the same equation: eg, 2 tumors; Volume={[L1×(W1)2]/2}+{[L2×(W2)2]/2}. Effects on tumor growth were reported as percent tumor growth inhibition (% TGI). Percent TGI was calculated with the equation: (1−(Tx vol./control vol.))*100, where control volume was the vehicle or untreated tumor volume on a given day, and Tx volume was any treatment group tumor volume on that same day. Statistical differences between treatment and vehicle controls were assessed using ANOVA: Single Factor test.

The target in assay [3] is PI3Kδ (p110δ/p85α) (Homo sapiens (Human), UniProt O00329). As to the kind of experiment: PI3Kδ Scintillation Proximity Assay (Example A3). Format: biochemical. The settings on record: 20 μM ATP, 20 μM PIP2, 4 nM PI3Kδ, read-out: PI3Kδ SPA IC50. The gist of the method: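 SPA with 4 nM p110δ/p85α, 20 μM PIP2, 20 μM ATP plus [γ-^33P]ATP, in 20 mM MOPS pH 6.7, 10 mM MgCl2, 5 mM DTT, 0.03% CHAPS, 0.5% DMSO, room temperature. Stopped with EDTA/ATP, WGA SPA beads, overnight shaking, scintillation counting. IC50 from % control activity vs log concentration.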

The target of assay [4] is PI3Kδ (Homo sapiens (Human), UniProt O00329). As to the kind of experiment: PI3K Enzyme Assay (Example A2, [γ-33P]ATP filter plate). Type of assay: biochemical. The settings on record: 1000 μM ATP, 50 μM PIP2. The procedure: PI3K isoforms α, β, δ and γ are purchased from Millipore (Bedford, Mass.).
Inhibitors are first diluted serially in DMSO and added to the plate wells before the addition of other reaction components. The final concentration of DMSO in the assay is 0.5%. The PI3K assays are carried out at room temperature in 20 mM MOPS, pH 6.7, 10 mM MgCl2, 5 mM DTT and CHAPS 0.03%. The reaction mixture is prepared containing 50 μM PIP2, kinase and varying concentration of inhibitors. Reactions are initiated by the addition of ATP containing 2.2 μCi [γ-^33P]ATP to a final concentration of 1000 μM. […] After drying by aspiration and blotting, the plate is air dried in an incubator at 37° C. overnight. Packard TopCount adapter (Millipore) is then attached to the plate followed with addition of 120 μL Microscint 20 scintillation cocktail (Perkin Elmer) in each well. […] IC50 determination is performed by fitting the curve of percent control activity versus the log of the inhibitor concentration using the GraphPad Prism 3.0 software.

Sequence of PI3Kδ (p110δ/p85α) (O00329 whole entry): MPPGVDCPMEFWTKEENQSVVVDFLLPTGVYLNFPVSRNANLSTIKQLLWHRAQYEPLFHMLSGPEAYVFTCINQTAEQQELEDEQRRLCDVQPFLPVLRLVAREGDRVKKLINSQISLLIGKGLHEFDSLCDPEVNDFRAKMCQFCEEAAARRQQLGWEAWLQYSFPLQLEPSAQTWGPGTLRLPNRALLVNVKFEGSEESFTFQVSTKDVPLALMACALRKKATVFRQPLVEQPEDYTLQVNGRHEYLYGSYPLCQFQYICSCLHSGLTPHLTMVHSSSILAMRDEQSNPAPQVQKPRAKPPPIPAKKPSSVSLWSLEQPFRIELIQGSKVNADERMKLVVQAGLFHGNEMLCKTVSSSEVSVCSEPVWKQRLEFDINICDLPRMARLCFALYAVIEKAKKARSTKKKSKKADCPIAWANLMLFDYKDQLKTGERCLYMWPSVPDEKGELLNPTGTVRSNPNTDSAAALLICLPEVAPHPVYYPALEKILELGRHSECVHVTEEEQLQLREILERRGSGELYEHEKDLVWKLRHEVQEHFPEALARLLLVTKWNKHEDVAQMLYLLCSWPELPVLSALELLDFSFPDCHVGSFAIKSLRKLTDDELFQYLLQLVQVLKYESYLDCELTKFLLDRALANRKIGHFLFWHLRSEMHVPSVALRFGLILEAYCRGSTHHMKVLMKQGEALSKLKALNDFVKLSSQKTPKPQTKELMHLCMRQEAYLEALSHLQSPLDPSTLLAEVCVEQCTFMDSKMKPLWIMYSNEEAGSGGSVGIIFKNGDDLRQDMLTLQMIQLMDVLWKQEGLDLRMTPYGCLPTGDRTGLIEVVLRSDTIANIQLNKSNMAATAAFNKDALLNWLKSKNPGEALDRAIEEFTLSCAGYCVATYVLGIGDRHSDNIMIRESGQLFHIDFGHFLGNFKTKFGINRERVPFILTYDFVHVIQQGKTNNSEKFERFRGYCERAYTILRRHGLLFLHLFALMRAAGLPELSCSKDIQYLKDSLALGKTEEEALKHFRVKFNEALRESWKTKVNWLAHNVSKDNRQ
Sequence of PI3Kδ (p110δ/p85α) (P27986 whole entry partner): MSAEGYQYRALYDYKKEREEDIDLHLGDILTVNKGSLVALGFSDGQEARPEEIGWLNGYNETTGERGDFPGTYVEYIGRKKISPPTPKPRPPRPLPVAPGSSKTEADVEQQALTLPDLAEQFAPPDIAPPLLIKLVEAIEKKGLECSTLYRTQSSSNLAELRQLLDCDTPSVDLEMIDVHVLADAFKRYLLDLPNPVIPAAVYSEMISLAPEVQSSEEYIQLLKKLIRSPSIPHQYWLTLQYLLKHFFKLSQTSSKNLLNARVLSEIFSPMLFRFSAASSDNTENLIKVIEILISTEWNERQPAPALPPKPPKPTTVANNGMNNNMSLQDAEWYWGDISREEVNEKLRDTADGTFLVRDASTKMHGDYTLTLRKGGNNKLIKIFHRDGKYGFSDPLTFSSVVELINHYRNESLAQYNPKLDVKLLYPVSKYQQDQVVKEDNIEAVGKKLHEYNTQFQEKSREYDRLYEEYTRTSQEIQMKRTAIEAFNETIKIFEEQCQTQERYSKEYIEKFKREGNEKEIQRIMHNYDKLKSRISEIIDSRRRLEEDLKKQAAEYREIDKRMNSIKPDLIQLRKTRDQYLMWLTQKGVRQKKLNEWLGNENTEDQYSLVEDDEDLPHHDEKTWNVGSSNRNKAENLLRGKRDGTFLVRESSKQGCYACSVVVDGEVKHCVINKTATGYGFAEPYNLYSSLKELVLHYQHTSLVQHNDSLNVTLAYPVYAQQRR
Sequence of PI3Kδ (O00329 whole entry, canonical isoform): as the sequence (O00329 whole entry) above
Sequence of PI3Kδ (P27986 whole entry partner, canonical isoform): as the sequence (P27986 whole entry partner) above

As for `CCOc1c(C(C)n2nc(C)c3c(N)ncnc32)cc(Cl)c(F)c1C1CNC(=O)C1` (single isomer, unassigned) [Example 347, 4-{3-[1-(4-amino-3-methyl-1H-pyrazolo[3,4-d]pyrimidin-1-yl)ethyl]-5-chloro-2-ethoxy-6-fluorophenyl}pyrrolidin-2-one], the “anti-proliferative effects in vitro on Pfeiffer cancer cells” value in assay [1] is “sensitive”. Moreover, the “percent tumor growth inhibition” value is recorded as 22% in assay [2] (0.3 mg/kg oral twice daily for 14 days), 24% in assay [2] (1 mg/kg oral twice daily for 14 days), 36% in assay [2] (3 mg/kg oral twice daily for 14 days) and 58% in assay [2] (10 mg/kg oral twice daily for 14 days).
In the case of `CCOc1c(C(C)n2nc(C)c3c(N)ncnc32)cc(Cl)c(C)c1-c1ccc(C(=O)N(C)C)cn1` (stereo not shown) [Example 208, 6-{3-[1-(4-Amino-3-methyl-1H-pyrazolo[3,4-d]pyrimidin-1-yl)ethyl]-5-chloro-2-ethoxy-6-methylphenyl}-N,N-dimethylnicotinamide bis(trifluoroacetate)], the IC50 in assay [3] is under 10 nM.
As for `CCOc1c(C(C)n2nc(C)c3c(N)ncnc32)cc(Cl)c(C#N)c1C1CN(C[C@H](C)O)C1` (stereo partly drawn) [Example 220, 4-[1-(4-Amino-3-methyl-1H-pyrazolo[3,4-d]pyrimidin-1-yl)ethyl]-6-chloro-3-ethoxy-2-{1-[(2S)-2-hydroxypropyl]azetidin-3-yl}benzonitrile], the IC50 in assay [3] was under 10 nM.
On the same count and under the same terms, the figure for `COc1c(C(C)n2nc(C)c3c(N)ncnc32)cc(Cl)c(C#N)c1C1CN(C[C@H](C)O)C1` (stereo partly drawn) [Example 269, 4-[1-(4-Amino-3-methyl-1H-pyrazolo[3,4-d]pyrimidin-1-yl)ethyl]-6-chloro-2-{1-[(2S)-2-hydroxypropyl]azetidin-3-yl}-3-methoxybenzo nitrile] is under 10 nM; for `COc1c(C(C)n2nc(C)c3c(N)ncnc32)cc(Cl)c(C#N)c1C1CN(C(C)CO)C1` (stereo not shown) [Example 272, 4-[1-(4-amino-3-methyl-1H-pyrazolo[3,4-d]pyrimidin-1-yl)ethyl]-6-chloro-2-[1-(2-hydroxy-1-methylethyl)azetidin-3-yl]-3-methoxybenzonitrile] it is under 10 nM.
For the compound `CCOc1c(C(C)n2nc(C)c3c(N)ncnc32)cc(Cl)c(C)c1C1CNC(=O)C1` (stereo not shown) [Example 310, 4-{3-[1-(4-amino-3-methyl-1H-pyrazolo[3,4-d]pyrimidin-1-yl)ethyl]-5-chloro-2-ethoxy-6-methylphenyl}pyrrolidin-2-one], in assay [3], the half-inhibitory concentration (IC50) is under 10 nM.
As to `COc1c(C(C)n2nc(C)c3c(N)ncnc32)cc(Cl)c(C)c1C1CNC(=O)O1` (stereo not shown) [Example 325, 5-{3-[1-(4-Amino-3-methyl-1H-pyrazolo[3,4-d]pyrimidin-1-yl)ethyl]-5-chloro-2-methoxy-6-methylphenyl}-1,3-oxazolidin-2-one], in assay [3], the half-maximal inhibitory concentration (IC50) was under 10 nM.
Compound `COc1c([C@@H](C)n2nc(C)c3c(N)ncnc32)cc(Cl)c(C#N)c1C1CN(C[C@H](C)O)C1` [Example 361, 4-((R)-1-(4-amino-3-methyl-1H-pyrazolo[3,4-d]pyrimidin-1-yl)ethyl)-6-chloro-2-(1-((S)-2-hydroxypropyl)azetidin-3-yl)-3-methoxybenzonitrile] yielded an IC50 in assay [4] of over 500 nM.
For `COc1c([C@H](C)n2nc(C)c3c(N)ncnc32)cc(Cl)c(C#N)c1C1CN(C[C@@H](C)O)C1` [Example 362], in assay [3], the IC50 was under 10 nM.
